Data: ChEMBL document CHEMBL4376889, “Discovery of a Brain-Penetrant ATP-Competitive Inhibitor of the Mechanistic Target of Rapamycin (mTOR) for CNS Disorders” (J Med Chem, 2020)
Values after ≈ are worked out from the molar mass of the structure shown. Active and inactive are the calls of the source. The rule behind the calls is not given here.

Tests used:
[1] = target: Serine/threonine-protein kinase mTOR (Rattus norvegicus, UniProt P42346); assay: Inhibition of mTOR in rat primary cortical neuron assessed as reduction in PS6 phosphorylation incubated for 4 hrs by Western blot analysis (reference value: 19 nM)
[2] = Selectivity index, ratio of IC50 for ATM (unknown origin) to IC50 for inhibition of mTOR in mouse MEF cells harboring TSC1 deletion mutant; assay type: cell-based
[3] = Protein binding in C57BL/6 mouse plasma at 5 uM incubated for 4 hrs by LC-MS/MS analysis; assay type: ADME, cell-free; settings: read-out: PPB
[4] = Drug uptake in C57BL/6J mouse brain at 3 mg/kg, po incubated for 3 hrs by LC-MS/MS analysis; assay type: ADME, organism-based; settings: read-out: Drug uptake
[5] = target: Phosphatidylinositol 4,5-bisphosphate 3-kinase catalytic subunit delta isoform (Homo sapiens, UniProt O00329); assay: Inhibition of PI3Kdelta (unknown origin)
Chain of Phosphatidylinositol 4,5-bisphosphate 3-kinase catalytic subunit delta isoform (O00329 whole entry, canonical isoform): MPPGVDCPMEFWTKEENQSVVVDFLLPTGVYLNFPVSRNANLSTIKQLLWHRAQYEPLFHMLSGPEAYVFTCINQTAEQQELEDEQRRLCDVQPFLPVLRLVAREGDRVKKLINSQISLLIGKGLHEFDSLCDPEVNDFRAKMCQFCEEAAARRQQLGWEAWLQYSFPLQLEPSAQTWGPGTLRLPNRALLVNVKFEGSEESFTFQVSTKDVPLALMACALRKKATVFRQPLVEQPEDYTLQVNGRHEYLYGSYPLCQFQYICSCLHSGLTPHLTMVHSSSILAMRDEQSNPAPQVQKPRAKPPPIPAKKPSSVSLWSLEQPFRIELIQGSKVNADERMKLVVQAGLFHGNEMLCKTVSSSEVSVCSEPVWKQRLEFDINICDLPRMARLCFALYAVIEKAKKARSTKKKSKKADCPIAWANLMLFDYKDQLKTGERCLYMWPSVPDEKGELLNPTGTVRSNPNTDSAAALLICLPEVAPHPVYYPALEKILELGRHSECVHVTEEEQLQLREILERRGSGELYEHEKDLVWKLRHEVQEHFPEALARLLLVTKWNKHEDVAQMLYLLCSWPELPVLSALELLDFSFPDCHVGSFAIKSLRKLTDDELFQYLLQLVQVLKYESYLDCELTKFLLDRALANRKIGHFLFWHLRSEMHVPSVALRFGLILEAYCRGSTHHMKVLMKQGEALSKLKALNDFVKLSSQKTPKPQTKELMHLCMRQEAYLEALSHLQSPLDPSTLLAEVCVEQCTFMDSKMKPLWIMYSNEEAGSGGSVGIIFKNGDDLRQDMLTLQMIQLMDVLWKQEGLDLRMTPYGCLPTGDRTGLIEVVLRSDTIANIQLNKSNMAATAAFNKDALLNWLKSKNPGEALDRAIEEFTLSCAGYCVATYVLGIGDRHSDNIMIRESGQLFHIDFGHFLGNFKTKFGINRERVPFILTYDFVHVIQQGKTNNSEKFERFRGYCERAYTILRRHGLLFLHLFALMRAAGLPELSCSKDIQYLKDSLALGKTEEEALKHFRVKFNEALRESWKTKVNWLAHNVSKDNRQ

[6] = target: Serine-protein kinase ATM (Homo sapiens, UniProt Q13315); assay: Inhibition of ATM (unknown origin) assessed as reduction in CHK2 phosphorylation by cell based assay
[7] = Ratio of drug concentration in brain to plasma in C57BL/6 mouse at 1 mg/kg, iv incubated for 0.5 hrs by LC-MS/MS analysis; assay type: ADME, organism-based; settings: read-out: BPR
[8] = Stability in rat liver microsomes assessed as intrinsic clearance; assay type: ADME, Microsome; settings: read-out: CLH
[9] = AUC (0 to t) in Sprague-Dawley rat at 1 mg/kg, iv by HPLC analysis; assay type: ADME, organism-based; settings: in vivo
[10] = target: Phosphatidylinositol 4,5-bisphosphate 3-kinase catalytic subunit gamma isoform (Homo sapiens, UniProt P48736); assay: Inhibition of PI3Kgamma (unknown origin)
Chain of Phosphatidylinositol 4,5-bisphosphate 3-kinase catalytic subunit gamma isoform (P48736 whole entry, canonical isoform): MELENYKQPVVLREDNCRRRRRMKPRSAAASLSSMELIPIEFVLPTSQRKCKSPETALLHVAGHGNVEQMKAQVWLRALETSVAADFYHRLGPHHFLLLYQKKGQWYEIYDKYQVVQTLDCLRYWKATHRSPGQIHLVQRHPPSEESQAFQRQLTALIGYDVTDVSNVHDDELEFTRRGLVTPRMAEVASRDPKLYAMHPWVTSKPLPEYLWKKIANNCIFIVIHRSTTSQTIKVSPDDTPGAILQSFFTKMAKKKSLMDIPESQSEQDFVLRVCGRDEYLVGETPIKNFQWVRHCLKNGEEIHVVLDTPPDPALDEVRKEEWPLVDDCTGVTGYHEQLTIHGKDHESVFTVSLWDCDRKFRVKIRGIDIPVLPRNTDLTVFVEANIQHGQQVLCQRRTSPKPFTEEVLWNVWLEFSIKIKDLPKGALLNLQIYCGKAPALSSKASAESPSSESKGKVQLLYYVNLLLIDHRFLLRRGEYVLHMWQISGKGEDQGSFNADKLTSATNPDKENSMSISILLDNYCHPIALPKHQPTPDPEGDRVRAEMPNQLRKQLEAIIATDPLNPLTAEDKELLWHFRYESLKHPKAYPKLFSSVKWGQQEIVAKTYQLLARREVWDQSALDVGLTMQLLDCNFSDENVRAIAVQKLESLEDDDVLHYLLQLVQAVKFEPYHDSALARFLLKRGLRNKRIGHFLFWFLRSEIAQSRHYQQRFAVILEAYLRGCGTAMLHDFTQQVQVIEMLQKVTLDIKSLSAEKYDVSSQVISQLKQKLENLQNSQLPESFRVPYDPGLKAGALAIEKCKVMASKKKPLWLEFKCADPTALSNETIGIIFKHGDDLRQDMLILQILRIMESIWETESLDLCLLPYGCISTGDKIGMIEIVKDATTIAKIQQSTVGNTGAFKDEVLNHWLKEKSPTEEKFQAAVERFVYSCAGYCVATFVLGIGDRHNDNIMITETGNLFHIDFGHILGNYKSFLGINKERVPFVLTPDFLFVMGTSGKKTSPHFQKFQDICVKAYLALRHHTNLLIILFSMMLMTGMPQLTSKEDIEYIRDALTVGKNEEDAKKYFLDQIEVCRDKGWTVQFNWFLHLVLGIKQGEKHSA

Mus musculus [11] = assay: Protection against C57BL/6J mouse model of neuronal mTOR hyperactivity assessed as survival rate at 10 mg/kg, ip administered on postnatal day 22 daily and measured on postnatal day 52 (reference value: 48 %); assay type: functional
[12] = target: 3',5'-cyclic-AMP phosphodiesterase 4D (Homo sapiens, UniProt Q08499); assay: Inhibition of PDE4D (unknown origin)
Chain of 3',5'-cyclic-AMP phosphodiesterase 4D (Q08499 whole entry): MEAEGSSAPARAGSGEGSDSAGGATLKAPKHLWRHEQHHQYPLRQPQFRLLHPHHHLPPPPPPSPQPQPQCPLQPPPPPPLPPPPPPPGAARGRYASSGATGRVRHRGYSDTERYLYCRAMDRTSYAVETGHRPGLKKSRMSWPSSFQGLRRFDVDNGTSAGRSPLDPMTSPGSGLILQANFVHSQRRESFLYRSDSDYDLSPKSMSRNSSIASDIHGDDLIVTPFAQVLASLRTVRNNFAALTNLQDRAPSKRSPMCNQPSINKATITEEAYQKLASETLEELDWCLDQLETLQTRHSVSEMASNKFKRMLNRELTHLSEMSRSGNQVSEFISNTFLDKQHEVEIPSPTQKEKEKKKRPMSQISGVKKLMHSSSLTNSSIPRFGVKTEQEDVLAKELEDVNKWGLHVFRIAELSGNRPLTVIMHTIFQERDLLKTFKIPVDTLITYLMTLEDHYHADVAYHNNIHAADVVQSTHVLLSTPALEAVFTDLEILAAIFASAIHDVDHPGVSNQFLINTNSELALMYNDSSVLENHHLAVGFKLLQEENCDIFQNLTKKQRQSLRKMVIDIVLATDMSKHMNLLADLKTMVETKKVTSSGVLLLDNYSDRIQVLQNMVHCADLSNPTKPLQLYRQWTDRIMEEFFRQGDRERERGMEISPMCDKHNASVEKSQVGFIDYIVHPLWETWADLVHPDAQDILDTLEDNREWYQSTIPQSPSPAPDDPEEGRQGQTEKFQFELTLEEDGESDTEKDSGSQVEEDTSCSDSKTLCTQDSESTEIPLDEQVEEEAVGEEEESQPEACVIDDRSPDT

Mus musculus [13] = assay: In vivo inhibition of PI3KCA in C57BL/6J mouse assessed as reduction in AKT phosphorylation Thr308 at 1 to 10 mg/kg, po measured after 24 hrs by Western blot analysis; assay type: functional, organism-based
Cytochrome P450 3A4 = Cytochrome P450 3A4 (Homo sapiens, UniProt P08684); assay: Inhibition of CYP3A4 (unknown origin); assay type: ADME
Chain of Cytochrome P450 3A4 (P08684 whole entry): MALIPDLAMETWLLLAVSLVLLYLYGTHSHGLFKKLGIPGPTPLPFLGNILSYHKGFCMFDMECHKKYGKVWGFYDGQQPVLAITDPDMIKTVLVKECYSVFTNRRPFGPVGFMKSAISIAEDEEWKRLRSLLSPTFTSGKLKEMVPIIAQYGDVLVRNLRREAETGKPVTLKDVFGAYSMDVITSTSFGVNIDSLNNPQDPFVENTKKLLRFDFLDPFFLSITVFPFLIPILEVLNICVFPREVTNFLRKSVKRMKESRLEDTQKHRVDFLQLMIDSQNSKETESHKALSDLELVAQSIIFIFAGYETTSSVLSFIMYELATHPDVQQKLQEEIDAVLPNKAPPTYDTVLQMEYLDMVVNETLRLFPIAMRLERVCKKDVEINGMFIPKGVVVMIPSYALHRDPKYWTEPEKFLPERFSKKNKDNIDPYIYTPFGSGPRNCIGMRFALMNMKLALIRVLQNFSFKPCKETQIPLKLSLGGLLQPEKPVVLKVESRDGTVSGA

Mus musculus [14] = assay: In vivo inhibition of mTOR pathway in C57BL/6J mouse assessed as reduction in mTORC1/mTORC2 complex by measuring AKT phosphorylation level at 1 to 10 mg/kg, po measured after 24 hrs by Western blot analysis; assay type: functional, organism-based
[15] = target: Serine/threonine-protein kinase mTOR (Rattus norvegicus, UniProt P42346, L2427P); assay: Inhibition of mTOR L2427P mutant in rat primary cortical neuron assessed as reduction in PS6 phosphorylation incubated for 4 hrs by Western blot analysis (reference value: 19 nM)
[16] = target: Serine/threonine-protein kinase mTOR (Rattus norvegicus, UniProt P42346, E2419K); assay: Inhibition of mTOR E2419K mutant in rat primary cortical neuron assessed as reduction in PS6 phosphorylation incubated for 4 hrs by Western blot analysis (reference value: 19 nM)
[17] = target: Serine/threonine-protein kinase mTOR (Rattus norvegicus, UniProt P42346, S2215F); assay: Inhibition of mTOR S2215F mutant in rat primary cortical neuron assessed as reduction in PS6 phosphorylation incubated for 4 hrs by Western blot analysis (reference value: 19 nM)
[18] = Clearance in Sprague-Dawley rat at 1 mg/kg, iv or 3 mg/kg, po by HPLC analysis; assay type: ADME, organism-based; settings: in vivo
[19] = target: Serine/threonine-protein kinase ATR (Homo sapiens, UniProt Q13535); assay: Inhibition of ATR (unknown origin) assessed as reduction in CHK1 phosphorylation by cell based assay
Cytochrome P450 2C9 = Cytochrome P450 2C9 (Homo sapiens, UniProt P11712); assay: Inhibition of CYP2C9 (unknown origin); assay type: ADME
Chain of Cytochrome P450 2C9 (P11712 whole entry): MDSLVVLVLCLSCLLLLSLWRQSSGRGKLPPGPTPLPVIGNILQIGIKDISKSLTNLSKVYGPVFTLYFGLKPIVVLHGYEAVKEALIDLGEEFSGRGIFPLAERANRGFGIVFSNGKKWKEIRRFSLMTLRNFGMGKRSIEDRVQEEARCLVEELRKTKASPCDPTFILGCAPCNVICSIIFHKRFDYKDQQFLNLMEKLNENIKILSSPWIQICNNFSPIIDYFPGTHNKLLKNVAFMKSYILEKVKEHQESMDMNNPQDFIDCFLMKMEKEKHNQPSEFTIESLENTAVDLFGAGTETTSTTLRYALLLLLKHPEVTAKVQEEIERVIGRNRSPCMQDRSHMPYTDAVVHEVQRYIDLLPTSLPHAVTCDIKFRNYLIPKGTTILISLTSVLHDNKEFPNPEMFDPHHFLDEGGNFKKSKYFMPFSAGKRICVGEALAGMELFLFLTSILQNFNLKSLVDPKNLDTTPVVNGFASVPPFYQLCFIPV

Mus musculus [20] = assay: In vivo inhibition of mTOR pathway in C57BL/6J mouse assessed as reduction in mTORC1/mTORC2 complex by measuring AKT phosphorylation level at 1 to 10 mg/kg, po measured after 8 hrs by Western blot analysis; assay type: functional, organism-based
Mus musculus [21] = assay: In vivo inhibition of mTOR pathway in C57BL/6J mouse assessed as reduction in mTORC1/mTORC2 complex by measuring PS6 phosphorylation level at 1 to 10 mg/kg, po measured after 8 hrs by Western blot analysis; assay type: functional, organism-based
[22] = Volume of distribution at steady state in Sprague-Dawley rat at 1 mg/kg, iv or 3 mg/kg, po by HPLC analysis; assay type: ADME, organism-based; settings: in vivo, read-out: Vdss
[23] = Solubility of compound at pH 6.8; assay type: physicochemical; settings: buffer
[24] = AUC (0 to t) in C57BL/6 mouse at 5 mg/kg, po by HPLC analysis; assay type: ADME, organism-based; settings: in vivo
[25] = Ratio of drug concentration in brain to plasma in C57BL/6J mouse at 3 mg/kg, po incubated for 3 hrs by LC-MS/MS analysis; assay type: ADME, organism-based; settings: read-out: BPR
[26] = Oral bioavailability in Sprague-Dawley rat at 3 mg/kg by HPLC analysis; assay type: ADME, organism-based; settings: in vivo
[27] = Drug uptake in C57BL/6J mouse brain at 1 mg/kg, po incubated for 3 hrs by LC-MS/MS analysis; assay type: ADME, organism-based; settings: read-out: Drug uptake
MDR1 = assay: Efflux ratio of permeability from basolateral to apical over apical to basolateral side in MDCK-MDR1 cells; assay type: ADME, cell-based, Canis lupus familiaris; settings: dog
[28] = Ratio of drug concentration in brain to plasma in Sprague-Dawley rat at 3 mg/kg, po incubated for 24 hrs by LC-MS/MS analysis; assay type: ADME, organism-based; settings: read-out: BPR
[29] = Tmax in Sprague-Dawley rat at 1 mg/kg, iv or 3 mg/kg, po by HPLC analysis; assay type: ADME, organism-based; settings: in vivo
[30] = Volume of distribution at steady state in C57BL/6 mouse at 1 mg/kg, iv or 5 mg/kg, po by HPLC analysis; assay type: ADME, organism-based; settings: in vivo, read-out: Vdss
[31] = Selectivity index, ratio of IC50 for ATR (unknown origin) to IC50 for inhibition of mTOR in mouse MEF cells harboring TSC1 deletion mutant; assay type: cell-based
[32] = Ratio of drug concentration in brain to plasma in C57BL/6 mouse at 1 mg/kg, iv incubated for 2 hrs by LC-MS/MS analysis; assay type: ADME, organism-based; settings: read-out: BPR
[33] = Drug uptake in C57BL/6J mouse plasma at 10 mg/kg, po incubated for 3 hrs by LC-MS/MS analysis; assay type: ADME, organism-based
[34] = target: Phosphatidylinositol 4,5-bisphosphate 3-kinase catalytic subunit beta isoform (Homo sapiens, UniProt P42338); assay: Inhibition of PI3Kbeta (unknown origin)
Chain of Phosphatidylinositol 4,5-bisphosphate 3-kinase catalytic subunit beta isoform (P42338 whole entry, canonical isoform): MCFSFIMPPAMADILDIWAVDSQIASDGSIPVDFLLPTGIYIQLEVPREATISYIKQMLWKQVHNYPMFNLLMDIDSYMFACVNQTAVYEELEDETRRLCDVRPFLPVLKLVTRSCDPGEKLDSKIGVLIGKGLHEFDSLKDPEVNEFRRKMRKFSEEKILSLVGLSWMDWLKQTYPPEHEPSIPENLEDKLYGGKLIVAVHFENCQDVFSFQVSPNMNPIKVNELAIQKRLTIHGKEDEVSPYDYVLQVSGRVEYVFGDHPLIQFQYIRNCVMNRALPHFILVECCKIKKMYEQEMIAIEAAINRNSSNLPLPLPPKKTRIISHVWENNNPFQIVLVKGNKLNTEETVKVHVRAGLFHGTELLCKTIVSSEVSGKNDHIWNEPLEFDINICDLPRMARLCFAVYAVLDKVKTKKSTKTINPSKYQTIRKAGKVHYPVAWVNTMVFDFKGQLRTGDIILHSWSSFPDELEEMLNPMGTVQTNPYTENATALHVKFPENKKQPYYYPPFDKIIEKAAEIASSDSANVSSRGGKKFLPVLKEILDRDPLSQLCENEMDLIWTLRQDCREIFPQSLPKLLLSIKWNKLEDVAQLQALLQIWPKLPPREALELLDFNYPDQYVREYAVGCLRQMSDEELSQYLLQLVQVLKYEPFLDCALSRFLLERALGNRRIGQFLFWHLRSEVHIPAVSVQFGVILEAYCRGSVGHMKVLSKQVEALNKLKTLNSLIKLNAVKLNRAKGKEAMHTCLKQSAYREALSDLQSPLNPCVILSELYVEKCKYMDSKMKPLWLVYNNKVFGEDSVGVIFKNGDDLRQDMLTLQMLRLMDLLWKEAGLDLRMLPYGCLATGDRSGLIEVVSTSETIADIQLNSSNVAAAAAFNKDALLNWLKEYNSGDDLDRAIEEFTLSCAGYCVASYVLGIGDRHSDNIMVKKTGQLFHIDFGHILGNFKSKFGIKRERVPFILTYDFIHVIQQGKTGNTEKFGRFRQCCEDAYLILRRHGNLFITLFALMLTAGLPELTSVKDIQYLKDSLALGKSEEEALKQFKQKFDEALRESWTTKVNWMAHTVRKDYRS

Mus musculus [35] = assay: Protection against C57BL/6J mouse model of neuronal mTOR hyperactivity assessed as survival rate at 10 mg/kg, ip administered on postnatal day 22 daily and measured on postnatal day 36 (reference value: 48 %); assay type: functional

Q: What does the source list for `C[C@@H]1COCCN1c1nc(N2CCOC[C@@H]2C)nc2sc(-c3cc[nH]n3)nc12`?
A: IC50 [1]: 17 nM; Ratio IC50 [2]: 3570; fraction unbound at 4 h, 5 µM [3]: < 0.01; concentration at 3 h [4]: 2390 nM; IC50 [5]: 1700 nM; IC50 [6]: 20 nM; Kp at 0.5 h [7]: 1; microsomal CLint [8]: 42 µL/min/mg; AUC(0-t) [9]: 4.34 µM·h; IC50 [10]: > 10 µM; Activity (Mus musculus [11]): 84%; IC50 [12]: 210 nM; inhibition (Mus musculus [13]): inactive; K (Cytochrome P450 3A4): 0.006 min⁻¹; inhibition (Mus musculus [14]): inactive; IC50 [15]: 24 nM; IC50 [16]: 22 nM; IC50 [17]: 17 nM; clearance [18]: 9.5 mL/min/kg; IC50 [19]: 394 nM; IC50 (Cytochrome P450 2C9): > 50 µM; inhibition (Mus musculus [20]): Active; inhibition (Mus musculus [21]): Active; Vd [22]: 2.6 L/kg; solubility [23]: 120 µg/mL (≈ 299 µM); AUC(0-t) [24]: 14.9 µM·h; Kp at 3 h [25]: 1.1; bioavailability [26]: 81%; concentration at 3 h [27]: 929 nM; efflux ratio (MDR1): 0.93; Kp at 24 h [28]: 3.1; Tmax [29]: 1.5 h; Vd [30]: 2.3 L/kg; Ratio IC50 [31]: 70; Kp at 2 h [32]: 1.2; concentration at 3 h [33]: 4.47 µM; IC50 [34]: > 10 µM; Activity (Mus musculus [35]): 95%
